Consider 20 compounds from US20260091026A1, “METHODS OF TREATING INFLAMMATORY DISEASES” (INTERLINE THERAPEUTICS, INC., priority 2023, published 2026).

Experiment [1] addresses T1, RIPK2 (KD)/XIAP (BIR2) (Homo sapiens, UniProt O43353).
T1 construct: made in house; host or cells: baculovirus-infected Sf9 cells
As to the kind of experiment: RIPK2-XIAP binding competition PPI assay (TR-FRET). As to conditions: for Emax: read-out: PPI Amax; for IC50: GST-RIPK2 / His-XIAP (BIR2)-avi, 120 min at 23° C. A digest of the protocol: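 TR-FRET competition between GST-RIPK2 (aa 1-310, 1 nM) and His-XIAP BIR2-avi (aa 152-231, 25 nM), both Sf9-expressed, detected with anti-His-XL665 and anti-GST-Tb in Tris pH 7.5 buffer with MgCl2, DTT and vanadate. Incubation was 120 min at 23 °C; the 665/520 nm ratio was normalized to no inhibitor (0%) and 50 nM GSK583 (−100%).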
(In general: In TR-FRET formats the signal depends on donor and acceptor labels being close together.)

Experiment [2] relates to THP1-Dual cells, NF-κB pathway (SEAP). Briefly: THP-1 Dual cell SEAP assay (L18-MDP stimulated). In kind it is cell-based. As to conditions: 10 ng/mL L18-MDP, 20-24 h, SEAP readout, read-out: IFNγ THP1 IC50. Put shortly: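 About 25,000 THP1-Dual cells per well were preincubated 30 min with serially diluted compound, then stimulated overnight (20-24 h, 37 °C) with 10 ng/mL L18-MDP (final). NF-κB-driven SEAP in supernatant was read with QUANTI-Blue at OD 620-655 nm after 2 h; % inhibition versus DMSO/L18-MDP wells was fitted by non-linear regression to give IC50.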

[3] abbreviates: 50 nM of GSK583 = -100% activity.

Structures are written as SMILES. Where two headings read alike, the source gives them in different places.

T1 sequence (O43353 1-310): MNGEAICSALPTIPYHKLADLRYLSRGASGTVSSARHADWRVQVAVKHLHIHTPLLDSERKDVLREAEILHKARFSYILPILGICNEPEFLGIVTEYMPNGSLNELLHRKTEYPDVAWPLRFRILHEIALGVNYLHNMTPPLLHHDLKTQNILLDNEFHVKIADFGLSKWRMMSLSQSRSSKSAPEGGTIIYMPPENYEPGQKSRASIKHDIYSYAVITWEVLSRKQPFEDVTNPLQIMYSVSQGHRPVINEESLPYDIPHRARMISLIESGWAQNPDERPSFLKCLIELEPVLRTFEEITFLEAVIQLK

As for `COc1cc2ncc(-c3cc(C(=O)N[C@H](C)c4ncc(F)cn4)n(C)n3)n2cc1S(=O)(=O)C(C)(C)C` [Example 104, (R)-3-(6-(tert-butylsulfonyl)-7-methoxyimidazo[1,2-a]pyridin-3-yl)-N-(1-(5-fluoropyrimidin-2-yl)ethyl)-1-methyl-1H-pyrazole-5-carboxamide], the Emax in experiment [1] (setting [3]) is no less than 80%. The concentration for half-maximal inhibition (IC50) – broadly, the concentration that gives 50% inhibition – was greater than 1000 nM in experiment [1] and greater than 2500 nM in experiment [2] (Homo sapiens).

Take `C[C@@H](CO)COc1cc2ncc(-c3cc(NC(=O)Cc4ccccc4Cl)n(C)n3)n2cc1S(=O)(=O)C(C)(C)C` [Example 188, (S)-N-(3-(6-(tert-butylsulfonyl)-7-(3-hydroxy-2-methylpropoxy)imidazo [1,2-a]pyridin-3-yl)-1-methyl-1H-pyrazol-5-yl)-2-(2-chlorophenyl) acetamide]: the Emax in experiment [1] (setting [3]) was no less than 80%. Besides, the IC50 in experiment [1] was less than 10 nM; in experiment [2] (Homo sapiens), 100 to 500 nM.

Take `C[C@@H](NC(=O)c1cc(-c2cnc3cc(OCCO)c(S(=O)(=O)C(C)(C)C)cn23)nn1C)c1ncccc1Cl` [Example 111, (R)-3-(6-(tert-butylsulfonyl)-7-(2-hydroxyethoxy)imidazo[1,2-a]pyridin-3-yl)-N-(1-(3-chloropyridin-2-yl)ethyl)-1-methyl-1H-pyrazole-5-carboxamide]: the Emax in experiment [1] (setting [3]) is no less than 80%. The half-maximal inhibitory concentration (IC50) lay in the range of 10 to 100 nM in experiment [1] and 100 to 500 nM in experiment [2] (Homo sapiens).

Take `COc1cc2ncc(-c3cc(NC(=O)O[C@@H](C)c4ccccc4)n(C)n3)n2cc1S(=O)(=O)C(C)(C)C` [Example 150, (S)-1-phenylethyl (3-(6-(tert-butylsulfonyl)-7-methoxyimidazo[1,2-a]pyridin-3-yl)-1-methyl-1H-pyrazol-5-yl)carbamate]: the Emax in experiment [1] (setting [3]) is no less than 80%. For the same compound, the IC50 in experiment [1] was 100 to 1000 nM; in experiment [2] (Homo sapiens), 500 to 2500 nM.

On to `COc1cc2ncc(-c3cc(C(=O)NCc4ncc(C)s4)n(C)n3)n2cc1S(=O)(=O)C(C)(C)C` [Example 89, 3-(6-(tert-butylsulfonyl)-7-methoxyimidazo[1,2-a]pyridin-3-yl)-1-methyl-N-((5-methylthiazol-2-yl)methyl)-1H-pyrazole-5-carboxamide], for which the Emax in experiment [1] (setting [3]) was no less than 80%. Besides, the half-maximal inhibitory concentration (IC50) is 10 to 100 nM in experiment [1] and 100 to 500 nM in experiment [2] (Homo sapiens).

For `COc1cc2ncc(-c3cc(C(=O)NCc4cccc5ccnn45)n(C)n3)n2cc1S(=O)(=O)C(C)(C)C` [Example 20, 3-(6-(tert-butylsulfonyl)-7-methoxyimidazo[1,2-a]pyridin-3-yl)-1-methyl-N-(pyrazolo[1,5-a]pyridin-7-ylmethyl)-1H-pyrazole-5-carboxamide], the Emax in experiment [1] (setting [3]) is no less than 80%. Besides, the IC50 in experiment [1] was 100 to 1000 nM; in experiment [2] (Homo sapiens), greater than 2500 nM.

`COc1cc2ncc(-c3cc(C(=O)N[C@@H]4CCc5cccnc54)n(C)n3)n2cc1S(=O)(=O)C(C)(C)C` [Example 63, (R)-3-(6-(tert-butylsulfonyl)-7-methoxyimidazo[1,2-a]pyridin-3-yl)-N-(6,7-dihydro-5H-cyclopenta[b]pyridin-7-yl)-1-methyl-1H-pyrazole-5-carboxamide]: in experiment [1] (setting [3]), the Emax is no less than 80%. For the same compound, the half-maximal inhibitory concentration (IC50) in experiment [1] was 100 to 1000 nM; in experiment [2] (Homo sapiens), greater than 2500 nM.

`COc1ccccc1[C@@H](C)NC(=O)c1cc(-c2cnc3cc(OCCO)c(S(=O)(=O)C(C)(C)C)cn23)nn1C` [Example 75, (R)-3-(6-(tert-butylsulfonyl)-7-(2-hydroxyethoxy)imidazo[1,2-a]pyridin-3-yl)-N-(1-(2-methoxyphenyl)ethyl)-1-methyl-1H-pyrazole-5-carboxamide]: in experiment [1] (setting [3]), the Emax is no less than 80%. The results for the half-maximal inhibitory concentration (IC50) in experiment [1] and in experiment [2] (Homo sapiens) were 10 to 100 nM and 500 to 2500 nM, respectively.

As to `COc1cc2ncc(-c3cc(C(=O)NCc4ccccc4)n(C)n3)n2cc1S(=O)(=O)C(C)(C)C` [Example 28, N-benzyl-3-(6-(tert-butylsulfonyl)-7-methoxyimidazo[1,2-a]pyridin-3-yl)-1-methyl-1H-pyrazole-5-carboxamide], in experiment [1] (setting [3]), the Emax is no less than 80%. For the same compound, the IC50 lay within 100 to 1000 nM in experiment [1] and 500 to 2500 nM in experiment [2] (Homo sapiens).

Regarding `CCn1nc(-c2cnc3cc(OCCO)c(S(=O)(=O)C(C)(C)C)cn23)cc1C(=O)NCc1cc(C)sn1` [Example 129, 3-(6-(tert-butylsulfonyl)-7-(2-hydroxyethoxy)imidazo[1,2-a]pyridin-3-yl)-1-ethyl-N-((5-methylisothiazol-3-yl)methyl)-1H-pyrazole-5-carboxamide], the Emax in experiment [1] (setting [3]) was no less than 80%. The 50% inhibitory concentration (IC50) is less than 10 nM in experiment [1] and less than 100 nM in experiment [2] (Homo sapiens).

As to `COc1cc2ncc(-c3cc(C(=O)N[C@@H]4C[C@@H]4c4ccccc4)n(C)n3)n2cc1S(=O)(=O)C(C)(C)C` (single isomer, unassigned) [Example 31, cis-(1R,2R) or (1S,2S) 3-(6-(tert-butylsulfonyl)-7-methoxyimidazo[1,2-a]pyridin-3-yl)-1-methyl-N-(2-phenylcyclopropyl)-1H-pyrazole-5-carboxamide], the “PPI Amax” value in experiment [1] (setting [3]) is listed as “D (Amax of ≤30%)”. For the same compound, the IC50 in experiment [1] is greater than 1000 nM; in experiment [2] it was greater than 2500 nM.

`COc1cc2ncc(-c3cc(C(=O)NCc4nccc(C)n4)n(C)n3)n2cc1S(=O)(=O)C(C)(C)C` [Example 79, 3-(6-(tert-butylsulfonyl)-7-methoxyimidazo[1,2-a]pyridin-3-yl)-1-methyl-N-((4-methylpyrimidin-2-yl)methyl)-1H-pyrazole-5-carboxamide]: in experiment [1] (setting [3]), the Emax is no less than 80%. The IC50 in experiment [1] was 100 to 1000 nM; in experiment [2] (Homo sapiens), greater than 2500 nM.

On to `C[C@@H](NC(=O)c1cc(-c2cnn3cc(OCCO)c(S(=O)(=O)C(C)(C)C)cc23)nn1C)c1ncccc1F` [Example 116, (R)-3-(5-(tert-butylsulfonyl)-6-(2-hydroxyethoxy)pyrazolo[1,5-a]pyridin-3-yl)-N-(1-(3-fluoropyridin-2-yl)ethyl)-1-methyl-1H-pyrazole-5-carboxamide], for which the Emax in experiment [1] (setting [3]) was no less than 80%. The results for the IC50 in experiment [1] and in experiment [2] (Homo sapiens) were 10 to 100 nM and 100 to 500 nM, respectively.

In the case of `COc1cc2ncc(-c3cc(C(=O)N[C@@H]4C[C@@H]4c4ccccc4)n(C)n3)n2cc1S(=O)(=O)C(C)(C)C` (single isomer, unassigned) [Example 30, cis-(1S,2S) or (1R,2R) 3-(6-(tert-butylsulfonyl)-7-methoxyimidazo[1,2-a]pyridin-3-yl)-1-methyl-N-(2-phenylcyclopropyl)-1H-pyrazole-5-carboxamide], the Emax in experiment [1] (setting [3]) was 30 to 55%. Also, the figures for the IC50 in experiment [1] and in experiment [2] (Homo sapiens) were greater than 1000 nM and greater than 2500 nM, respectively.

With `COc1cc2ncc(-c3cc(C(=O)NC4(c5ncccn5)CC4)n(C)n3)n2cc1S(=O)(=O)C(C)(C)C` [Example 55, 3-(6-(tert-butylsulfonyl)-7-methoxyimidazo[1,2-a]pyridin-3-yl)-1-methyl-N-(1-(pyrimidin-2-yl)cyclopropyl)-1H-pyrazole-5-carboxamide], in experiment [1] (setting [3]), the Emax is 30 to 55%. In addition, the IC50 is greater than 1000 nM in experiment [1] and greater than 2500 nM in experiment [2] (Homo sapiens).

On to `COc1cc2ncc(-c3cc(C(=O)NCc4ccccn4)n(C)n3)n2cc1S(=O)(=O)C(C)(C)C` [Example 26, 3-(6-(tert-butylsulfonyl)-7-methoxyimidazo[1,2-a]pyridin-3-yl)-1-methyl-N-(pyridin-2-ylmethyl)-1H-pyrazole-5-carboxamide], for which, in experiment [1] (setting [3]), the Emax is no less than 80%. For the same compound, the values for the IC50 in experiment [1] and in experiment [2] (Homo sapiens) were 100 to 1000 nM and 500 to 2500 nM, respectively.

Take `COc1cc2ncc(-c3cc(C(=O)NCc4ncsn4)n(C)n3)n2cc1S(=O)(=O)C(C)(C)C` [Example 90, N-((1,2,4-thiadiazol-3-yl)methyl)-3-(6-(tert-butylsulfonyl)-7-methoxyimidazo[1,2-a]pyridin-3-yl)-1-methyl-1H-pyrazole-5-carboxamide]: the Emax in experiment [1] (setting [3]) is 55 to 80%. For the same compound, the IC50 lay within 10 to 100 nM in experiment [1] and 500 to 2500 nM in experiment [2] (Homo sapiens).

`COc1cc2ncc(-c3cc(C(=O)NCC4CCCCC4)n(C)n3)n2cc1S(=O)(=O)C(C)(C)C` [Example 41, 3-(6-(tert-butylsulfonyl)-7-methoxyimidazo[1,2-a]pyridin-3-yl)-N-(cyclohexylmethyl)-1-methyl-1H-pyrazole-5-carboxamide]: in experiment [1] (setting [3]), the Emax is no less than 80%. For the same compound, the figures for the 50% inhibitory concentration (IC50) in experiment [1] and in experiment [2] (Homo sapiens) were 100 to 1000 nM and greater than 2500 nM, respectively.

For the compound `COc1cc2ncc(-c3cc(C(=O)N[C@@H](C)c4ccn(C)n4)n(C)n3)n2cc1S(=O)(=O)C(C)(C)C` [Example 60, (S)-3-(6-(tert-butylsulfonyl)-7-methoxyimidazo[1,2-a]pyridin-3-yl)-1-methyl-N-(1-(1-methyl-1H-pyrazol-3-yl)ethyl)-1H-pyrazole-5-carboxamide], in experiment [1] (setting [3]), the Emax is no less than 80%. Further, the IC50 is greater than 1000 nM in experiment [1] and greater than 2500 nM in experiment [2] (Homo sapiens).

As for `COc1cc2ncc(-c3cc(C(=O)NCc4cn(C)cn4)n(C)n3)n2cc1S(=O)(=O)C(C)(C)C` [Example 44, 3-(6-(tert-butylsulfonyl)-7-methoxyimidazo[1,2-a]pyridin-3-yl)-1-methyl-N-((1-methyl-1H-imidazol-4-yl)methyl)-1H-pyrazole-5-carboxamide], the Emax in experiment [1] (setting [3]) was no less than 80%. The IC50 in experiment [1] was 100 to 1000 nM; in experiment [2] (Homo sapiens), greater than 2500 nM.
